Reference: ChEMBL document CHEMBL4219139, “Enantiomeric trans β-aryl-δ-iodo-γ-lactones derived from 2,5-dimethylbenzaldehyde induce apoptosis in canine lymphoma cell lines by downregulation of anti-apoptotic Bcl-2 family members Bcl-xL and Bcl-2” (2018)
Active and inactive are the calls of the source. The calls are words filed in the database; no cut-off is given here.

Experiments:
[1] = species on record: Canis lupus familiaris; assay: Cytotoxic activity against canine GL1 cells assessed as cell death after 24 hrs by propidium iodide staining-based FACS analysis; type: functional
[2] = tested on: CLBL-1; assay: Cytotoxic activity against canine CLBL1 cells assessed as cell death after 24 hrs by propidium iodide staining-based FACS analysis; type: functional; conditions: Canis lupus familiaris
[3] = tested on: CLB70; assay: Cytotoxic activity against canine CLB70 cells assessed as cell death after 24 hrs by propidium iodide staining-based FACS analysis; type: functional; conditions: Canis lupus familiaris
[4] = tested on: Jurkat; assay: Cytotoxic activity against human Jurkat cells assessed as cell death after 24 hrs by propidium iodide staining-based FACS analysis; type: functional
[5] = tested on: CLBL-1; assay: Cytotoxic activity against canine CLBL1 cells assessed as cell death at 50 ug/ml after 24 hrs by propidium iodide staining-based FACS analysis; type: functional, Canis lupus familiaris
[6] = tested on: CLB70; assay: Cytotoxic activity against canine CLB70 cells assessed as cell death at 50 ug/ml after 24 hrs by propidium iodide staining-based FACS analysis; type: functional, Canis lupus familiaris
[7] = tested on: Jurkat; assay: Cytotoxic activity against human Jurkat cells assessed as cell death at 50 ug/ml after 24 hrs by propidium iodide staining-based FACS analysis; type: functional
[8] = Cytotoxic activity against canine GL1 cells assessed as cell death at 50 ug/ml after 24 hrs by propidium iodide staining-based FACS analysis; type: functional, Canis lupus familiaris
[9] = tested on: CLBL-1; assay: Induction of apoptosis in canine CLBL1 cells at 50 ug/ml after 24 hrs by Annexin V/FITC staining based FACS analysis; type: functional, cell-based; conditions: Canis lupus familiaris
[10] = tested on: CLB70; assay: Induction of apoptosis in canine CLB70 cells at 50 ug/ml after 24 hrs by Annexin V/FITC staining based FACS analysis; type: functional, cell-based; conditions: Canis lupus familiaris
[11] = species on record: Canis lupus familiaris; assay: Induction of apoptosis in canine GL1 cells at 50 ug/ml after 24 hrs by Annexin V/FITC staining based FACS analysis; type: functional, cell-based
[12] = tested on: Jurkat; assay: Induction of apoptosis in human Jurkat cells at 50 ug/ml after 24 hrs by Annexin V/FITC staining based FACS analysis; type: functional, cell-based
[13] = tested on: CLBL-1; assay: Induction of apoptosis in canine CLBL1 cells assessed as activation of caspase-3/7 at 50 ug/ml after 24 hrs by flow cytometry; type: functional, Canis lupus familiaris
[14] = tested on: CLB70; assay: Induction of apoptosis in canine CLB70 cells assessed as activation of caspase-3/7 at 50 ug/ml after 24 hrs by flow cytometry; type: functional, Canis lupus familiaris
[15] = Induction of apoptosis in canine GL1 cells assessed as activation of caspase-3/7 at 50 ug/ml after 24 hrs by flow cytometry; type: functional, Canis lupus familiaris
[16] = tested on: Jurkat; assay: Induction of apoptosis in human Jurkat cells assessed as activation of caspase-3/7 at 50 ug/ml after 24 hrs by flow cytometry; type: functional
[17] = tested on: CLBL-1; assay: Induction of apoptosis in canine CLBL1 cells preincubated with Z-VAD-fmk pan-caspase inhibitor assessed as activation of caspase-3/7 at 50 ug/ml after 24 hrs by flow cytometry; type: functional, cell-based; conditions: Canis lupus familiaris
[18] = tested on: CLB70; assay: Induction of apoptosis in canine CLB70 cells preincubated with Z-VAD-fmk pan-caspase inhibitor assessed as activation of caspase-3/7 at 50 ug/ml after 24 hrs by flow cytometry; type: functional, cell-based; conditions: Canis lupus familiaris
[19] = species on record: Canis lupus familiaris; assay: Induction of apoptosis in canine GL1 cells preincubated with Z-VAD-fmk pan-caspase inhibitor assessed as activation of caspase-3/7 at 50 ug/ml after 24 hrs by flow cytometry; type: functional, cell-based
[20] = tested on: Jurkat; assay: Induction of apoptosis in human Jurkat cells preincubated with Z-VAD-fmk pan-caspase inhibitor assessed as activation of caspase-3/7 at 50 ug/ml after 24 hrs by flow cytometry; type: functional, cell-based
[21] = species on record: Canis lupus familiaris; assay: Induction of apoptosis in canine GL1 cells assessed as downregulation of Bcl-xl expression at 25 ug/ml after 24 hrs by Western blot analysis; type: functional, cell-based
[22] = tested on: Jurkat; assay: Induction of apoptosis in human Jurkat cells assessed as downregulation of Bcl-xl expression at 25 ug/ml after 24 hrs by Western blot analysis; type: functional, cell-based
[23] = tested on: CLBL-1; assay: Induction of apoptosis in canine CLBL1 cells assessed as downregulation of Bcl-xl expression at 50 ug/ml after 24 hrs by Western blot analysis; type: functional, cell-based; conditions: Canis lupus familiaris
[24] = tested on: CLB70; assay: Induction of apoptosis in canine CLB70 cells assessed as downregulation of Bcl-xl expression at 50 ug/ml after 24 hrs by Western blot analysis; type: functional, cell-based; conditions: Canis lupus familiaris
[25] = species on record: Canis lupus familiaris; assay: Induction of apoptosis in canine GL1 cells assessed as downregulation of Bcl-xl expression at 50 ug/ml after 24 hrs by Western blot analysis; type: functional, cell-based
[26] = tested on: Jurkat; assay: Induction of apoptosis in human Jurkat cells assessed as downregulation of Bcl-xl expression at 50 ug/ml after 24 hrs by Western blot analysis; type: functional, cell-based
[27] = tested on: CLB70; assay: Induction of apoptosis in canine CLB70 cells assessed as cleavage of Bid at 25 to 50 ug/ml after 24 hrs by Western blot analysis; type: functional, cell-based; conditions: Canis lupus familiaris
[28] = species on record: Canis lupus familiaris; assay: Induction of apoptosis in canine GL1 cells assessed as cleavage of Bid at 25 to 50 ug/ml after 24 hrs by Western blot analysis; type: functional, cell-based
[29] = tested on: Jurkat; assay: Induction of apoptosis in human Jurkat cells assessed as cleavage of Bid at 25 to 50 ug/ml after 24 hrs by Western blot analysis; type: functional, cell-based
[30] = tested on: Jurkat; assay: Induction of apoptosis in human Jurkat cells assessed as cleavage of PARP1 at 25 to 50 ug/ml after 24 hrs by Western blot analysis; type: functional, cell-based
[31] = tested on: CLBL-1; assay: Induction of apoptosis in canine CLBL1 cells assessed as cleavage of PARP1 at 50 ug/ml after 24 hrs by Western blot analysis; type: functional, cell-based; conditions: Canis lupus familiaris
[32] = tested on: CLB70; assay: Induction of apoptosis in canine CLB70 cells assessed as downregulation of Bcl-2 expression at 50 ug/ml after 24 hrs by Western blot analysis; type: functional, cell-based; conditions: Canis lupus familiaris
[33] = tested on: CLBL-1; assay: Induction of apoptosis in canine CLBL1 cells assessed as downregulation of Bcl-2 expression at 50 ug/ml after 24 hrs by Western blot analysis; type: functional, cell-based; conditions: Canis lupus familiaris
[34] = species on record: Canis lupus familiaris; assay: Induction of apoptosis in canine GL1 cells assessed as downregulation of Bcl-2 expression at 50 ug/ml after 24 hrs by Western blot analysis; type: functional, cell-based
[35] = tested on: Jurkat; assay: Induction of apoptosis in human Jurkat cells assessed as downregulation of Bcl-2 expression at 50 ug/ml after 24 hrs by Western blot analysis; type: functional, cell-based
[36] = tested on: CLB70; assay: Induction of apoptosis in canine CLB70 cells assessed as cleavage of PARP1 at 25 to 50 ug/ml after 24 hrs by Western blot analysis; type: functional, cell-based; conditions: Canis lupus familiaris
[37] = tested on: CLBL-1; assay: Induction of apoptosis in canine CLBL1 cells assessed as downregulation of Bcl-xl expression at 25 to 50 ug/ml after 24 hrs by Western blot analysis; type: functional, cell-based; conditions: Canis lupus familiaris
[38] = tested on: CLB70; assay: Induction of apoptosis in canine CLB70 cells assessed as downregulation of Bcl-xl expression at 25 to 50 ug/ml after 24 hrs by Western blot analysis; type: functional, cell-based; conditions: Canis lupus familiaris
[39] = species on record: Canis lupus familiaris; assay: Induction of apoptosis in canine GL1 cells assessed as downregulation of Bcl-xl expression at 25 to 50 ug/ml after 24 hrs by Western blot analysis; type: functional, cell-based
[40] = tested on: Jurkat; assay: Induction of apoptosis in human Jurkat cells assessed as downregulation of Bcl-xl expression at 25 to 50 ug/ml after 24 hrs by Western blot analysis; type: functional, cell-based
[41] = tested on: CLBL-1; assay: Induction of apoptosis in canine CLBL1 cells assessed as downregulation of Bcl-2 expression at 25 to 50 ug/ml after 24 hrs by Western blot analysis; type: functional, cell-based; conditions: Canis lupus familiaris
[42] = tested on: CLB70; assay: Induction of apoptosis in canine CLB70 cells assessed as downregulation of Bcl-2 expression at 25 to 50 ug/ml after 24 hrs by Western blot analysis; type: functional, cell-based; conditions: Canis lupus familiaris
[43] = species on record: Canis lupus familiaris; assay: Induction of apoptosis in canine GL1 cells assessed as downregulation of Bcl-2 expression at 25 to 50 ug/ml after 24 hrs by Western blot analysis; type: functional, cell-based
[44] = tested on: Jurkat; assay: Induction of apoptosis in human Jurkat cells assessed as downregulation of Bcl-2 expression at 25 to 50 ug/ml after 24 hrs by Western blot analysis; type: functional, cell-based
[45] = tested on: CLBL-1; assay: Induction of apoptosis in canine CLBL1 cells assessed as cleavage of Bid at 25 to 50 ug/ml after 24 hrs by Western blot analysis; type: functional, cell-based; conditions: Canis lupus familiaris

Cc1ccc(C)c([C@H]2CC(=O)O[C@@H]2[C@@H](C)I)c1
Activity [1]: Dose-dependent effect | Activity [2]: Dose-dependent effect | Activity [3]: Dose-dependent effect | Activity [4]: Dose-dependent effect | Activity [5]: 80% | Activity [6]: 60% | Activity [7]: 60% | Activity [8]: 60% | Activity [9]: Active | Activity [10]: Active | Activity [11]: Active | Activity [12]: Active | Activity [13]: 78.89% | Activity [14]: 55.8% | Activity [15]: 58.47% | Activity [16]: 66.93% | Activity [17]: inactive | Activity [18]: inactive | Activity [19]: inactive | Activity [20]: inactive | Activity [21]: inactive | Activity [22]: inactive | Activity [23]: inactive | Activity [24]: Active | Activity [25]: Active | Activity [26]: Active | Activity [27]: Active | Activity [28]: Active | Activity [29]: inactive | Activity [30]: Active | Activity [31]: Active | Activity [32]: Active | Activity [33]: inactive | Activity [34]: Active | Activity [35]: Active | Activity [36]: Active

Cc1ccc(C)c([C@@H]2CC(=O)O[C@H]2[C@H](C)I)c1
Activity [1]: Dose-dependent effect | Activity [2]: Dose-dependent effect | Activity [3]: Dose-dependent effect | Activity [4]: Dose-dependent effect | Activity [5]: 80% | Activity [6]: 25% | Activity [7]: 25% | Activity [8]: 25% | Activity [9]: Active | Activity [10]: Active | Activity [11]: Active | Activity [12]: Active | Activity [13]: 73.53% | Activity [14]: 30.04% | Activity [15]: 20.35% | Activity [16]: 32.35% | Activity [17]: inactive | Activity [18]: inactive | Activity [19]: inactive | Activity [20]: inactive | Activity [37]: inactive | Activity [38]: Active | Activity [39]: Active | Activity [40]: Active | Activity [41]: inactive | Activity [42]: Active | Activity [43]: Active | Activity [44]: Active | Activity [29]: inactive | Activity [45]: Active | Activity [30]: Active | Activity [31]: Active | Activity [36]: Active
